In patent US10385019B2, “Inhibitors of EGFR and methods of use thereof” (Dana-Farber Cancer Institute, Inc., priority 2015, dated 2019):
Read-outs that look alike come from different tables or passages of the source.

Assays:
Test in all cases: Ba/F3 cell proliferation model
Type in all cases: cell-based, murine
[1] = test system: EGFR Parental Ba/F3 cell line; conditions: Mus musculus, BaF3; compound alone
Description: (§1) The selectivity between wild-type EGFR and EGFR containing one or more mutations as described herein can also be measured using cellular proliferation assays where cell proliferation is dependent on kinase activity. For example, murine Ba/F3 cells transfected with a suitable version of wild-type EGFR (such as VIII; containing a WT EGFR kinase domain), or Ba/F3 cells transfected with L858R/T790M, Del/T790M/L718Q, L858R/T790M/L718Q, L858R/T790M/C797S, Del/T790M/C797S, L858R/T790M/I941R, or Exon 19 deletion/T790M can be used.
(§2) Cell lines are plated in media. The compounds of the present disclosure are then serially diluted and transferred to the cells. Cell viability is measured via a luminescent readout. Data is analyzed by non-linear regression curve-fitting.
(§3) The EGFR mutant L858R, Del E746_A750, L858R/T790M, DelE746_A750/T790M, L858R/T790M/C797S and Del/T790M/C797S Ba/F3 cells have been previously described (Zhou, W., Ercan, D., Chen, L., Yun, C. H., Li, D., Capelletti, M., Cortot, A. B., Chirieac, L., Iacob, R. E., Padera, R., et al. “Novel mutant-selective EGFR kinase inhibitors against EGFR T790M,” Nature 462, (2009), 1070-1074). All cell lines were maintained in RPMI 1640 (Cellgro; Mediatech Inc., Herndon, Calif.) supplemented with 10% FBS 100 units/mL penicillin, 100 units/mL streptomycin, and 2 mM glutamine. L858R cells were maintained in ACL-4 media (Invitrogen, Carlsbad, Calif.) supplemented with 5% FBS, 100 units/mL penicillin, 100 units/mL streptomycin, and 2 mM glutamine. The EGFR I941R mutation was introduced via site directed mutagenesis using the Quick Change Site-Directed Mutagenesis kit (Stratagene; La Jolla, Calif.) according to the manufacturer's instructions. All constructs were confirmed by DNA sequencing. The constructs were shuttled into the retroviral vector JP 1540 using the BD Creator™ System (BD Biosciences). Ba/F3 cells were infected with retrovirus and according to standard protocols, as described previously (Zhou et al, Nature 2009). Stable clones were obtained by selection in puromycin (2 μg/ml).
(§4) Growth and inhibition of growth was assessed by MTS assay and was performed according to previously established methods (Zhou et al., Nature 2009). The MTS assay is a colorimetric method for determining the number of viable cells that is based on the bioreduction of MTS by cells to a formazan product that is soluble in cell culture medium and can be detected spectrophotometrically. Ba/F3 cells of different EGFR genotypes were exposed to treatment for 72 hours and the number of cells used per experiment determined empirically and has been previously established (Zhou et al., Nature 2009). All experimental points were set up in six wells and all experiments were repeated at least three times. […] The curves were fitted using a non-linear regression model with a sigmoidal dose response.

[2] = target: Del/T790M Ba/F3 cell line (Homo sapiens, UniProt P00533, DEL746-750/T790M, cells depend on it)
Sequence of Del/T790M Ba/F3 cell line (P00533 with tags, fused parts or gaps DEL746-750/T790M): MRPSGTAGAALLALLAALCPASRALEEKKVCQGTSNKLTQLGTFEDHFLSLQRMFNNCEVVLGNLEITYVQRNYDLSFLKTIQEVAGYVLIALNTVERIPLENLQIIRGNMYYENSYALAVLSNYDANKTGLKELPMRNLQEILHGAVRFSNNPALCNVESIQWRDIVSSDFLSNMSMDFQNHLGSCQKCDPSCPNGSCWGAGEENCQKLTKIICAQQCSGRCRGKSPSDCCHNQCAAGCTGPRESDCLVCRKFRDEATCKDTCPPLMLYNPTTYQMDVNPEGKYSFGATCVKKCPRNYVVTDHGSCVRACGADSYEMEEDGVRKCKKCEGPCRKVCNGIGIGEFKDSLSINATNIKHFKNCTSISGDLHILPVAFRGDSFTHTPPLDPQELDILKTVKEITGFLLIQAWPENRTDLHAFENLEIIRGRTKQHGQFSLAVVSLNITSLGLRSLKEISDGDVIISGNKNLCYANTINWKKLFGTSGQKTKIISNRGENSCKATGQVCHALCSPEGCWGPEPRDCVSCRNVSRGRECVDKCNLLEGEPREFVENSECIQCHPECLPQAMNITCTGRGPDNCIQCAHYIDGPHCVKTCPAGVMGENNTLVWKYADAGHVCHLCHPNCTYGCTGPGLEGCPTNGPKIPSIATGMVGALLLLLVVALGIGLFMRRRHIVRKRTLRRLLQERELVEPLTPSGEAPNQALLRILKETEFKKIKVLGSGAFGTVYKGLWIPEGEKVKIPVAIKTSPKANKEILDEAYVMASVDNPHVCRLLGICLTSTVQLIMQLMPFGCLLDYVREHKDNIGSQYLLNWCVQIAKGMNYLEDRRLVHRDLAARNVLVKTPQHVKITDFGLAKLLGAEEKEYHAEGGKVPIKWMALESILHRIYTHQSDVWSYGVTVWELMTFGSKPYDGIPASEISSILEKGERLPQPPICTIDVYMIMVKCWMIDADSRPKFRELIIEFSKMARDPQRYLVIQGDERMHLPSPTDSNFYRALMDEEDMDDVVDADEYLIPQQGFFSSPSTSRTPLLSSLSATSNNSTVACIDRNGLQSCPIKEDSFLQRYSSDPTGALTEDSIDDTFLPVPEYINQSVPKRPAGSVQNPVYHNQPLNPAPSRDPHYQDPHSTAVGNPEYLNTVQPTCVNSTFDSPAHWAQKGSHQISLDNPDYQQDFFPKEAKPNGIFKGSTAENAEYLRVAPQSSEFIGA
Description: as §1, §2, §3, §4

[3] = target: EGFR T790M/L858R Ba/F3 cell line (Homo sapiens, UniProt P00533, T790M/L858R, cells depend on it); conditions: for Activity (% inhibition): combined with cetuximab (% cetuximab, 1.0 μM drug concentration with 1.0 μg/mL cetuximab)
Sequence of EGFR T790M/L858R Ba/F3 cell line (P00533 whole entry T790M/L858R): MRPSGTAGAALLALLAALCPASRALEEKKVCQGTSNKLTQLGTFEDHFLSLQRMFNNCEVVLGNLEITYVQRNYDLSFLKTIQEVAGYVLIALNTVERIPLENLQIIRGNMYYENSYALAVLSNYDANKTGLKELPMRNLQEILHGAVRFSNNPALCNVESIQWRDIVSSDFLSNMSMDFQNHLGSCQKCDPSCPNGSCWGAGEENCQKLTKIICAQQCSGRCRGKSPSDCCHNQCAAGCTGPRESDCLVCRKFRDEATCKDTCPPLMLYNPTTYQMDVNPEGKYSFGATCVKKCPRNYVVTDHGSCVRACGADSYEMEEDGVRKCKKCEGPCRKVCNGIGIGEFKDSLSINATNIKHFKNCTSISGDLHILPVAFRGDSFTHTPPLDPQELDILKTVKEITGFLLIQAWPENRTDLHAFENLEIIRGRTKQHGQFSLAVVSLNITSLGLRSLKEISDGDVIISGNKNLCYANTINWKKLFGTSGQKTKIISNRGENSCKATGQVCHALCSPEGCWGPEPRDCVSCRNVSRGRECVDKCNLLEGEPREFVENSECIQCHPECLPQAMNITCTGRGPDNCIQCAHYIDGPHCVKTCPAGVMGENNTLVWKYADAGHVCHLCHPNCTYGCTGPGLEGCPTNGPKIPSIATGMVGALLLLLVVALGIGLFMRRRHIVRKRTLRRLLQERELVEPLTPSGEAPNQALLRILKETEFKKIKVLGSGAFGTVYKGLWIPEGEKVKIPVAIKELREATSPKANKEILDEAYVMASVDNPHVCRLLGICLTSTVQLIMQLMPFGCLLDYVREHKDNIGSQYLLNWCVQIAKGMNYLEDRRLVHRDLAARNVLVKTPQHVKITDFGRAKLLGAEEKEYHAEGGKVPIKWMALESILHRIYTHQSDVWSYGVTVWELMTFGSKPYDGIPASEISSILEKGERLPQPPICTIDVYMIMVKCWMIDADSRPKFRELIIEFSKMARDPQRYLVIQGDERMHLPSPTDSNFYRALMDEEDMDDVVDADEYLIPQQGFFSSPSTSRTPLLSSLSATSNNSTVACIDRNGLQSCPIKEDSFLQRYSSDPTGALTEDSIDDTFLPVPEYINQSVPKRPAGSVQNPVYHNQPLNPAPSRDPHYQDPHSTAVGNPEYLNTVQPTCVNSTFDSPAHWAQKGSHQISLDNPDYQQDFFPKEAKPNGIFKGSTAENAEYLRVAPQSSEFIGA
Method in brief: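 Murine Ba/F3 cells made IL-3-independent by retroviral EGFR L858R/T790M, selected in puromycin (2 μg/ml) and kept in RPMI 1640 with 10% FBS. Cells were exposed to serially diluted compound for 72 h, with growth read by MTS assay in six wells per point and ≥3 repeats. Sigmoidal dose-response non-linear regression gave the values.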

[4] = compound alone, read-out: Del/T790M IC50
[5] = read-out: Del/T790M Cetuximab IC50, in combination with Cetuximab
[6] = compound alone, read-out: L858R/T790M IC50
[7] = read-out: L858R/T790M Cetuximab IC50, in combination with Cetuximab

| Compound | GI50 [2, 4] [µM] | GI50 [2, 5] [µM] | GI50 [3, 6] [µM] | GI50 [3, 7] [µM] | IC50 [1] [µM] | Activity (% inhibition) [3] |
| --- | --- | --- | --- | --- | --- | --- |
| O=C(Nc1nccs1)[C@@H](c1ccccc1)N1Cc2ccc(-c3ccc4[nH]ccc4c3)cc2C1=O [Compound I-66, (R)-2-(6-(1H-indol-5-yl)-1-oxoisoindolin-2-yl)-2-phenyl-N-(thiazol-2-yl)acetamide] | > 10 | 1 to 10 | 1 to 10 | < 0.5 | > 10 | D (a % inhibition of between about 0% to about 25%) |
| COc1cc(OC)cc(-c2ccc3c(c2)C(=O)N([C@@H](C(=O)Nc2nccs2)c2ccccc2)C3)c1 [Compound I-79, (R)-2-(6-(3,5-dimethoxyphenyl)-1-oxoisoindolin-2-yl)-2-phenyl-N-(thiazol-2-yl)acetamide] | > 10 | > 10 | > 10 | < 0.5 | > 10 | D (a % inhibition of between about 0% to about 25%) |
| CN1CCN(c2ccc(-c3ccc4c(c3)C(=O)N([C@@H](C(=O)Nc3nccs3)c3ccccc3)C4)cc2)CC1 [Compound I-69, (R)-2-(6-(4-(4-methylpiperazin-1-yl)phenyl)-1-oxoisoindolin-2-yl)-2-phenyl-N-(thiazol-2-yl) acetamide] | 1 to 10 | 1 to 10 | 1 to 10 | < 0.5 | 1 to 10 | D (a % inhibition of between about 0% to about 25%) |
| O=C(Nc1nccs1)[C@@H](c1ccccc1)N1Cc2ccc(-c3ccc4c(c3)OCCO4)cc2C1=O [Compound I-65, (R)-2-(6-(2,3-dihydrobenzo[b] [1,4]dioxin-6-yl)-1-oxoisoindolin-2-yl)-2-phenyl-N-(thiazol-2-yl)acetamide] | > 10 | > 10 | > 10 | < 0.5 | > 10 | D (a % inhibition of between about 0% to about 25%) |
| O=C(Nc1nccs1)[C@@H](c1ccccc1)N1Cc2ccc(-c3cnc4ccccc4c3)cc2C1=O [Compound I-70, (R)-2-(1-oxo-6-(quinolin-3-yl)isoindolin-2-yl)-2-phenyl-N-(thiazol-2-yl)acetamide] | > 10 | > 10 | > 10 | < 0.5 | > 10 | D (a % inhibition of between about 0% to about 25%) |

Continued, in another order:

| GI50 [2, 4] [µM] | GI50 [2, 5] [µM] | GI50 [3, 6] [µM] | GI50 [3, 7] [µM] | Compound | IC50 [1] [µM] | Activity (% inhibition) [3] |
| --- | --- | --- | --- | --- | --- | --- |
| > 10 | > 10 | > 10 | < 0.5 | CC(C)(C)OC(=O)N1CCN(c2ccc(-c3ccc4c(c3)C(=O)N([C@@H](C(=O)Nc3nccs3)c3ccccc3)C4)c(F)c2)CC1 [Compound I-119, tert-butyl (R)-4-(3-fluoro-4-(3-oxo-2-(2-oxo-1-phenyl-2-(thiazol-2-ylamino)ethyl)isoindolin-5-yl)phenyl)piperazine-1-carboxylate] | > 10 | D (a % inhibition of between about 0% to about 25%) |
| > 10 | > 10 | > 10 | < 0.5 | O=C(Nc1nccs1)[C@H](c1ccccc1)N1Cc2ccc(-c3ccccc3F)cc2C1=O [Compound I-113, (S)-2-(6-(2-fluorophenyl)-1-oxoisoindolin-2-yl)-2-phenyl-N-(thiazol-2-yl)acetamide] | > 10 | C (a % inhibition of between about 25% to about 50%) |
| 1 to 10 | 1 to 10 | 1 to 10 | < 0.5 | O=C(Nc1nccs1)[C@H](c1ccccc1)N1Cc2ccc(-c3ccc(N4CCNCC4)cc3)cc2C1=O [Compound I-115, (S)-2-(1-oxo-6-(4-(piperazin-1-yl)phenyl)isoindolin-2-yl)-2-phenyl-N-(thiazol-2-yl)acetamide] | 1 to 10 | D (a % inhibition of between about 0% to about 25%) |
